From EP4722207A1, “OXOISOINDOLINYL-SUBSTITUTED TETRAHYDROPYRIMIDINEDIONE DERIVATIVE AND USE THEREOF” (Gluetacs Therapeutics (Shanghai) Co., Ltd., priority 2023, dated 2024)

What was measured:
Format in all cases: cell-based
Conditions in all cases: 24 hours of compound treatment, 50 nM and 500 nM
IKZF3 = target: T1, IKZF3 (Homo sapiens, UniProt Q96SW2+Q9UKT9); assay: Western-blot assay, substrate protein degradation in hPBMCs: IKZF3
T1 construct: effects of the compounds of the present disclosure on the expression of target proteins in cells; endogenous in cells; host or cells: human PBMCs (hPBMCs)

GSPT1 = target: T2, GSPT1 (Homo sapiens, UniProt P15170+Q96SW2); assay: Western-blot assay, substrate protein degradation in hPBMCs: GSPT1
T2 construct: effects of the compounds of the present disclosure on the expression of target proteins in cells; endogenous in cells; host or cells: human PBMCs (hPBMCs)

CK1α = target: T3, CK1α (Homo sapiens, UniProt P48729+Q96SW2); assay: Western-blot assay, substrate protein degradation in hPBMCs: CK1α
T3 construct: effects of the compounds of the present disclosure on the expression of target proteins in cells; endogenous in cells; host or cells: human PBMCs (hPBMCs)

IKZF1 = target: T4, IKZF1 (Homo sapiens, UniProt Q13422+Q96SW2); assay: Western-blot assay, substrate protein degradation in hPBMCs: IKZF1
T4 construct: effects of the compounds of the present disclosure on the expression of target proteins in cells; endogenous in cells; host or cells: human PBMCs (hPBMCs)

IKZF2 = target: T5, IKZF2 (Homo sapiens, UniProt Q96SW2+Q9UKS7); assay: Western-blot assay, substrate protein degradation in hPBMCs: IKZF2
T5 construct: effects of the compounds of the present disclosure on the expression of target proteins in cells; endogenous in cells; host or cells: human PBMCs (hPBMCs)

WEE1 = target: T6, WEE1 (Homo sapiens, UniProt P30291+Q96SW2); assay: Western-blot assay, substrate protein degradation in hPBMCs: WEE1
T6 construct: effects of the compounds of the present disclosure on the expression of target proteins in cells; endogenous in cells; host or cells: human PBMCs (hPBMCs)
T6 sequence (P30291 whole entry): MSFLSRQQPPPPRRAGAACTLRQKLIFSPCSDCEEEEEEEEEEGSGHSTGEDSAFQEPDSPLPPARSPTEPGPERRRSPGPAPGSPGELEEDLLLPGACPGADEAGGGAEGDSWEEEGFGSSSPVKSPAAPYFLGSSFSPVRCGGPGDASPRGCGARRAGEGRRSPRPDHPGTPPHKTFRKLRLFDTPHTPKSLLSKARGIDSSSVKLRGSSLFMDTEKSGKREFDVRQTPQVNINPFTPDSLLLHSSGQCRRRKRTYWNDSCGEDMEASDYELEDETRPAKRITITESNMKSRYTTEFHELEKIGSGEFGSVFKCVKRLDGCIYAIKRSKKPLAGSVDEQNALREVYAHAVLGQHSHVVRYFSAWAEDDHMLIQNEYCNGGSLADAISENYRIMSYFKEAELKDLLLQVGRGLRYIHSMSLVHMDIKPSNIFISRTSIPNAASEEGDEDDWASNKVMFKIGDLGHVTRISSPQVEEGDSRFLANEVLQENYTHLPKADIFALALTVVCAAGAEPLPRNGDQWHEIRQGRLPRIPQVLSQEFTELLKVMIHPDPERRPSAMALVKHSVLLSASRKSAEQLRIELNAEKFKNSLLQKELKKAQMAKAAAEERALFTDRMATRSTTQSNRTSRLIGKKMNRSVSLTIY
T6 sequence (Q96SW2 whole entry): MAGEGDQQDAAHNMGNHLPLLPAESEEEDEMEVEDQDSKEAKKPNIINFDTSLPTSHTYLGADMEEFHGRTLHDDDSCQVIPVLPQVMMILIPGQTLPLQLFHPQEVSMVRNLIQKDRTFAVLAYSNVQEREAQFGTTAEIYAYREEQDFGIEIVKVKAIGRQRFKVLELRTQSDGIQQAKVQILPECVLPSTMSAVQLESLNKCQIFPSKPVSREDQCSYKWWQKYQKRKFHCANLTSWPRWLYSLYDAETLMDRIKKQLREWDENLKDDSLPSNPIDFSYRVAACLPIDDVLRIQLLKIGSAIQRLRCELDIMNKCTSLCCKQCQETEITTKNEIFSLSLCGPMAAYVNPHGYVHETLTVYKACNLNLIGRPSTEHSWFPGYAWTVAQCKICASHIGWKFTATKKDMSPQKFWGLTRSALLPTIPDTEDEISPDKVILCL
T6 sequence (Q16531 whole entry partner): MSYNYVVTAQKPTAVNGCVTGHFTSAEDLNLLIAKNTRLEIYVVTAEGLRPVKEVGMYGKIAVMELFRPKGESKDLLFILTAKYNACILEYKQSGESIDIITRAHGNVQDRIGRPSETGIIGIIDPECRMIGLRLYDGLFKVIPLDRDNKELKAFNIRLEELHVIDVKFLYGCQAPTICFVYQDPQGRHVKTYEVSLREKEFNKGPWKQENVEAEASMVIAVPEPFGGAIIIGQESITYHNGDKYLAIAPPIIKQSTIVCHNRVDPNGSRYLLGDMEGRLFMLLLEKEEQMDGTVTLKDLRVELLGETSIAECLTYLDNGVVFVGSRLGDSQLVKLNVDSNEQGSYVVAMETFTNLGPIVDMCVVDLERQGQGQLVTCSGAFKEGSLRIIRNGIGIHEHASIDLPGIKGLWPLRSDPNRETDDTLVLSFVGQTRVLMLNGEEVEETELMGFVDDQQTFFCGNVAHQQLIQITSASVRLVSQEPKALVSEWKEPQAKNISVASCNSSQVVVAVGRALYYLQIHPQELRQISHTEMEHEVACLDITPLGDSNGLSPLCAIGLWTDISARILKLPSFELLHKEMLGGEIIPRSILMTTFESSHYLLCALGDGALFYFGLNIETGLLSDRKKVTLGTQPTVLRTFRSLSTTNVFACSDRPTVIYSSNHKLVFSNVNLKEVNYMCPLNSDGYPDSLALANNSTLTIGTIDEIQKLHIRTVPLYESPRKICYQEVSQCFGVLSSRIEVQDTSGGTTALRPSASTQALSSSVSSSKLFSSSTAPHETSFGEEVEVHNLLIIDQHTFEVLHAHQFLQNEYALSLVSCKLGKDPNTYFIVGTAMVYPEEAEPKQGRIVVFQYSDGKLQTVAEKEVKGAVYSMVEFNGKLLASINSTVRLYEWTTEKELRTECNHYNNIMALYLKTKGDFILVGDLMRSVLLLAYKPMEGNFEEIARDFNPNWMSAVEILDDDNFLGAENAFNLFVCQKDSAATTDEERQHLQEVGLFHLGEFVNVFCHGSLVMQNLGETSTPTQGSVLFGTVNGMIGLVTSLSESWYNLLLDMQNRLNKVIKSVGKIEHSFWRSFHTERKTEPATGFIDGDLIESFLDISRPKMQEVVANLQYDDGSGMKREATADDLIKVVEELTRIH

T1 sequence (Q9UKT9 whole entry): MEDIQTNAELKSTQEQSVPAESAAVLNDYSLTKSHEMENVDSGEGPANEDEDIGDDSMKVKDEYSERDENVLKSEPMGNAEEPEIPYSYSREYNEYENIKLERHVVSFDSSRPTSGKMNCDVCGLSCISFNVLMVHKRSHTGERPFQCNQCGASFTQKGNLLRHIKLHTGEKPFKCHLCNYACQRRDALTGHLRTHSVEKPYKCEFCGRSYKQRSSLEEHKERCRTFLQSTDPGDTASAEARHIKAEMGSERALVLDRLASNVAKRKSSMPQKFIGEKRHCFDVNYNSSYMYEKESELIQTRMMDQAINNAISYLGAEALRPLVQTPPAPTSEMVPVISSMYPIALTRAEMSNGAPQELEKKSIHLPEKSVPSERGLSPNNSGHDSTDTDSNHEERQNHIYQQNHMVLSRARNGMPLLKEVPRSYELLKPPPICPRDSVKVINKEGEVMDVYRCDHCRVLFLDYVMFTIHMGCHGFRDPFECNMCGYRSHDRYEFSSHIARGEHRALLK
T1 sequence (Q96SW2 whole entry): as the sequence (Q96SW2 whole entry) above
T1 sequence (Q16531 whole entry partner): as the sequence (Q16531 whole entry partner) above
T3 sequence (P48729 whole entry): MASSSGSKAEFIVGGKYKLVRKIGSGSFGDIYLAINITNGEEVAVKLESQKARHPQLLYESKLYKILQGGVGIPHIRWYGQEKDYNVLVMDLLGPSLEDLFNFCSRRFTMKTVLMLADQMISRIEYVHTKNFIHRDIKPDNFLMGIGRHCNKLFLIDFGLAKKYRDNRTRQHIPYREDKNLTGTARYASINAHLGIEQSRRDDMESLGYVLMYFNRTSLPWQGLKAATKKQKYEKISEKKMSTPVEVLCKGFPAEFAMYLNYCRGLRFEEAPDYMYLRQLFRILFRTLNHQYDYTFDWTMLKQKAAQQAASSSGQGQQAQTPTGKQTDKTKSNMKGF
T3 sequence (Q96SW2 whole entry): as the sequence (Q96SW2 whole entry) above
T3 sequence (Q16531 whole entry partner): as the sequence (Q16531 whole entry partner) above
T2 sequence (P15170 whole entry): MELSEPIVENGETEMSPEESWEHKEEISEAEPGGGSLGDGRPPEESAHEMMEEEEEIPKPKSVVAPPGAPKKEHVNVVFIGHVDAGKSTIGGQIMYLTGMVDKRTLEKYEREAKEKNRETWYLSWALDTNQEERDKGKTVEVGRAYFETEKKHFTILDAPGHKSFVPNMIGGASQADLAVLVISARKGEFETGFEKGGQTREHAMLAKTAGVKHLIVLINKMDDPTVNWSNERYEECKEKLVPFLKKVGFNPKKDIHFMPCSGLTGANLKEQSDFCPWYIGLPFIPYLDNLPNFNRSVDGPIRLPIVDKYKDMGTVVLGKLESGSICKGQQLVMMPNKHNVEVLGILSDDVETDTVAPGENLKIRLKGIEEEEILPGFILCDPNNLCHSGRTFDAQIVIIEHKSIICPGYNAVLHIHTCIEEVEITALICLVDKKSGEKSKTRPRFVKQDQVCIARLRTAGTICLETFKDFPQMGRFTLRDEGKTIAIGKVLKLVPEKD
T2 sequence (Q96SW2 whole entry): as the sequence (Q96SW2 whole entry) above
T2 sequence (Q16531 whole entry partner): as the sequence (Q16531 whole entry partner) above
T5 sequence (Q9UKS7 whole entry): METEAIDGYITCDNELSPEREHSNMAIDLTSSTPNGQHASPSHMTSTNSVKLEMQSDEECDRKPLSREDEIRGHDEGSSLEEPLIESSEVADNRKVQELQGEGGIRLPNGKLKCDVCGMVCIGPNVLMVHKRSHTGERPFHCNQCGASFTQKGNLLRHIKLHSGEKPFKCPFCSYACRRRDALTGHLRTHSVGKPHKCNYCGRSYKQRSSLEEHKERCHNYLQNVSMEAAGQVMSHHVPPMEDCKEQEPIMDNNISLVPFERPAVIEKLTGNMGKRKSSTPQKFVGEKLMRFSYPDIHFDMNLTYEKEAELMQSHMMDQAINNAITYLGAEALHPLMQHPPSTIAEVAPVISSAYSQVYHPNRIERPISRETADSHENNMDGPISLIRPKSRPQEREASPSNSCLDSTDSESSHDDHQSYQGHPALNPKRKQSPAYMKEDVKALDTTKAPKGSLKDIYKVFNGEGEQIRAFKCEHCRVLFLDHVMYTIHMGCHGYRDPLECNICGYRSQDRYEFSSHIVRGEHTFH
T5 sequence (Q96SW2 whole entry): as the sequence (Q96SW2 whole entry) above
T5 sequence (Q16531 whole entry partner): as the sequence (Q16531 whole entry partner) above

Compound | substrate protein remaining % IKZF3 (IKZF3) | substrate protein remaining % GSPT1 (GSPT1) | substrate protein remaining % CK1α (CK1α) | substrate protein remaining % IKZF1 (IKZF1) | substrate protein remaining % IKZF2 (IKZF2) | substrate protein remaining % WEE1 (WEE1)
CC1(C)CCC(CN2CC3CC2CN3Cc2ccc3c(c2)CN(N2CCC(=O)NC2=O)C3=O)=C(c2ccc(Cl)cc2)C1 (stereo not drawn) [GT-07329, 1-(5-((5-((4'-chloro-5,5-dimethyl-3,4,5,6-tetrahydro-[1,1'-biphenyl]-2-yl)methyl)-2,5-diazabicyclo[2.2.1]heptan-2-yl)methyl)-1-oxoisoindolin-2-yl)dihydropyrimidine-2,4(1H,3H)-dione] | B (80%< substrate protein remaining %≤ 100%) | A (0% ≤ substrate protein remaining % ≤ 80%) | B (80%< substrate protein remaining %≤ 100%) | B (80%< substrate protein remaining %≤ 100%) | B (80%< substrate protein remaining %≤ 100%) | A (0% ≤ substrate protein remaining % ≤ 80%)
CC1(C)CCC(CN2CC3CCC(C2)N3Cc2ccc3c(c2)CN(N2CCC(=O)NC2=O)C3=O)=C(c2ccc(Cl)cc2)C1 [GT-07330, 1-(5-((3-((4'-chloro-5,5-dimethyl-3,4,5,6-tetrahydro-[1,1'-biphenyl]-2-yl)methyl)-3,8-diazabicyclo[3.2.1]octan-8-yl)methyl)-1-oxoisoindolin-2-yl)dihydropyrimidine-2,4(1H,3H)-dione] | A (0% ≤ substrate protein remaining % ≤ 80%) | A (0% ≤ substrate protein remaining % ≤ 80%) | B (80%< substrate protein remaining %≤ 100%) | A (0% ≤ substrate protein remaining % ≤ 80%) | A (0% ≤ substrate protein remaining % ≤ 80%) | A (0% ≤ substrate protein remaining % ≤ 80%)
CC1(C)CCC(CN2CC3CCC2CN3Cc2ccc3c(c2)CN(N2CCC(=O)NC2=O)C3=O)=C(c2ccc(Cl)cc2)C1 (stereo not drawn) [GT-07331, 1-(5-((5-((4'-chloro-5,5-dimethyl-3,4,5,6-tetrahydro-[1,1'-biphenyl]-2-yl)methyl)-2,5-diazabicyclo[2.2.2]octan-2-yl)methyl)-1-oxoisoindolin-2-yl)dihydropyrimidine-2,4(1H,3H)-dione] | A (0% ≤ substrate protein remaining % ≤ 80%) | A (0% ≤ substrate protein remaining % ≤ 80%) | A (0% ≤ substrate protein remaining % ≤ 80%) | A (0% ≤ substrate protein remaining % ≤ 80%) | B (80%< substrate protein remaining %≤ 100%) | A (0% ≤ substrate protein remaining % ≤ 80%)
CC1(C)CC(c2ccc(Cl)cc2)=C(CN2CCN(Cc3ccc4c(c3)CN(N3CCC(=O)NC3=O)C4=O)CC2)CO1 [GT-07332, 1-(5-((4-((4-(4-chlorophenyl)-6,6-dimethyl-5,6-dihydro-2H-pyran-3-yl)methyl)piperazin-1-yl)methyl)-1-oxoisoindolin-2-yl)dihydropyrimidine-2,4(1H,3H)-dione] | A (0% ≤ substrate protein remaining % ≤ 80%) | A (0% ≤ substrate protein remaining % ≤ 80%) | B (80%< substrate protein remaining %≤ 100%) | A (0% ≤ substrate protein remaining % ≤ 80%) | B (80%< substrate protein remaining %≤ 100%) | A (0% ≤ substrate protein remaining % ≤ 80%)
CC1(C)CCC(CN2CC3CCC(C2)N3Cc2ccc3c(c2)C(=O)N(N2CCC(=O)NC2=O)C3=O)=C(c2ccc(Cl)cc2)C1 [GT-07333, 5-((3-((4'-chloro-5,5-dimethyl-3,4,5,6-tetrahydro-[1,1'-biphenyl]-2-yl)methyl)-3,8-diazabicyclo[3.2.1]octan-8-yl)methyl)-2-(2,4-dioxotetrahydropyrimidin-1(2H)-yl)isoindoline-1,3-dione] | B (80%< substrate protein remaining %≤ 100%) | A (0% ≤ substrate protein remaining % ≤ 80%) | B (80%< substrate protein remaining %≤ 100%) | B (80%< substrate protein remaining %≤ 100%) | B (80%< substrate protein remaining %≤ 100%) | B (80%< substrate protein remaining %≤ 100%)
CC1(C)CCC(CN2CC3CC2CN3Cc2ccc3c(c2)C(=O)N(N2CCC(=O)NC2=O)C3=O)=C(c2ccc(Cl)cc2)C1 (stereo not drawn) [GT-07334, 5-((5-((4'-chloro-5,5-dimethyl-3,4,5,6-tetrahydro-[1,1'-biphenyl]-2-yl)methyl)-2,5-diazabicyclo[2.2.1]heptan-2-yl)methyl)-2-(2,4-dioxotetrahydropyrimidin-1(2H)-yl)isoindoline-1,3-dione] | B (80%< substrate protein remaining %≤ 100%) | B (80%< substrate protein remaining %≤ 100%) | A (0% ≤ substrate protein remaining % ≤ 80%) | B (80%< substrate protein remaining %≤ 100%) | B (80%< substrate protein remaining %≤ 100%) | A (0% ≤ substrate protein remaining % ≤ 80%)
Cc1cscc1C1CCN(Cc2ccc3c(c2)CN(N2CCC(=O)NC2=O)C3=O)CC1 [GT-07372, 1-(5-((4-(4-methylthiophen-3-yl)piperidin-1-yl)methyl)-1-oxoisoindolin-2-yl)dihydropyrimidine-2,4(1H,3H)-dione] | A (0% ≤ substrate protein remaining % ≤ 80%) | A (0% ≤ substrate protein remaining % ≤ 80%) | B (80%< substrate protein remaining %≤ 100%) | B (80%< substrate protein remaining %≤ 100%) | B (80%< substrate protein remaining %≤ 100%) | B (80%< substrate protein remaining %≤ 100%)
Cc1cc(C2CCN(Cc3ccc4c(c3)CN(N3CCC(=O)NC3=O)C4=O)CC2)cs1 [GT-07373, 1-(5-((4-(5-methylthiophen-3-yl)piperidin-1-yl)methyl)-1-oxoisoindolin-2-yl)dihydropyrimidine-2,4(1H,3H)-dione] | A (0% ≤ substrate protein remaining % ≤ 80%) | A (0% ≤ substrate protein remaining % ≤ 80%) | B (80%< substrate protein remaining %≤ 100%) | B (80%< substrate protein remaining %≤ 100%) | B (80%< substrate protein remaining %≤ 100%) | B (80%< substrate protein remaining %≤ 100%)
O=C1CCN(N2Cc3cc(CN4CCC(c5ccco5)CC4)ccc3C2=O)C(=O)N1 [GT-07374, 1-(5-((4-(furan-2-yl)piperidin-1-yl)methyl)-1-oxoisoindolin-2-yl)dihydropyrimidine-2,4(1H,3H)-dione] | B (80%< substrate protein remaining %≤ 100%) | A (0% ≤ substrate protein remaining % ≤ 80%) | A (0% ≤ substrate protein remaining % ≤ 80%) | B (80%< substrate protein remaining %≤ 100%) | B (80%< substrate protein remaining %≤ 100%) | B (80%< substrate protein remaining %≤ 100%)
O=C1CCN(N2Cc3cc(CN4CCC(c5ccoc5)CC4)ccc3C2=O)C(=O)N1 [GT-07375, 1-(5-((4-(furan-3-yl)piperidin-1-yl)methyl)-1-oxoisoindolin-2-yl)dihydropyrimidine-2,4(1H,3H)-dione] | B (80%< substrate protein remaining %≤ 100%) | A (0% ≤ substrate protein remaining % ≤ 80%) | A (0% ≤ substrate protein remaining % ≤ 80%) | B (80%< substrate protein remaining %≤ 100%) | B (80%< substrate protein remaining %≤ 100%) | B (80%< substrate protein remaining %≤ 100%)
O=C1CCN(N2Cc3cc(CN4C5CC4CN(C(=O)C4=C(c6ccc(F)cc6)CCCC4)C5)ccc3C2=O)C(=O)N1 [GT-07376, 1-(5-((3-(4'-fluoro-3,4,5,6-tetrahydro-[1,1'-biphenyl]-2-carbonyl)-3,6-diazabicyclo[3.1.1]heptan-6-yl)methyl)-1-oxoisoindolin-2-yl)dihydropyrimidine-2,4(1H,3H)-dione] | B (80%< substrate protein remaining %≤ 100%) | B (80%< substrate protein remaining %≤ 100%) | B (80%< substrate protein remaining %≤ 100%) | B (80%< substrate protein remaining %≤ 100%) | B (80%< substrate protein remaining %≤ 100%) | A (0% ≤ substrate protein remaining % ≤ 80%)
